This is an account of results in paper PMC5049785, “Characterization of Novel Antimalarial Compound ACT-451840: Preclinical Assessment of Activity and Dose–Efficacy Modeling” (PLoS Medicine, 2016).

Experiment [1] has as its system P. falciparum clinical isolates (Papua, Indonesia). The experiment is described as follows: Ex vivo drug susceptibility, P. falciparum clinical isolates. It counts as cell-based, Plasmodium falciparum. Conditions: Plasmodium falciparum, read-out: median IC50. The procedure: (§1) […]. Thick blood films made from each well were stained with 5% Giemsa solution for 30 min and examined microscopically. The number of schizonts per 200 asexual-stage parasites was determined for each drug concentration and normalized to the control well.

Experiment [2] relates to P. vivax clinical isolates (Papua, Indonesia). The experiment is described as follows: Ex vivo drug susceptibility, P. vivax clinical isolates. It counts as cell-based, Plasmodium vivax. Particulars: Plasmodium vivax, read-out: median IC50. The procedure: as §1
Experiment [3] deals with P. falciparum 7G8 (Brazil). Put plainly: [3H]-hypoxanthine incorporation assay, 7G8. In kind it is cell-based, Plasmodium falciparum. Particulars: Plasmodium falciparum.
The subject of experiment [4] is P. falciparum TM90C2A (Thailand). Put plainly: [3H]-hypoxanthine incorporation assay, TM90C2A. In kind it is cell-based, Plasmodium falciparum. Particulars: Plasmodium falciparum.
The subject of experiment [5] is GFP-transfected P. berghei ANKA strain. Put plainly: In vivo efficacy, P. berghei mouse model. Further details: species or system Plasmodium berghei in female NMRI mice. Particulars: 100 mg/kg quadruple-dose regimen. The procedure:
In vivo efficacy against P. berghei was conducted at the Swiss TPH as previously described, with the modification that female NMRI mice from Harlan (Horst, The Netherlands) (n = 3) were infected with a GFP-transfected P. berghei ANKA strain (kindly donated by A. P. Waters and C. J. Janse, Leiden University Medical Center, The Netherlands) and parasitemia was determined using standard flow cytometry techniques. ACT-451840 was dissolved or suspended in corn oil before dosing and administered 24 h after infection (single-dose regimen) or 24, 48, and 72 h after infection (triple-dose regimen). With the single-dose regimen, blood was collected on Day 3 (72 h after infection). Samples for the triple-dose regimens were collected on Day 4 (96 h after infection). Antimalarial activity was calculated as the difference between the mean percent parasitemia for the control and treated groups expressed as a percent relative to the control group, consisting of five mice. Control mice were euthanized on Day 4 in order to prevent death typically occurring on Day 6. For the consistency in PK/PD modeling, Day 5 instead of Day 6 was considered the day of death, because treated animals were always euthanized one day before their natural death for animal welfare reasons. Animals were considered cured if there were no detectable parasites on Day 30 post-infection. To confirm the reliability of this assumption, blood from the surviving mice in curative experiments was inoculated into uninfected mice, and no parasitemia developed in these mice even after 30 d. The antimalarial efficacy is defined either as antimalarial activity or as survival: the two readouts of the P. berghei murine model.

The test system of experiment [6] is P. falciparum V1/S (Vietnam). Put plainly: [3H]-hypoxanthine incorporation assay, V1/S. It counts as cell-based, Plasmodium falciparum. Particulars: Plasmodium falciparum, read-out: 50% inhibitory concentration (IC50).
The subject of experiment [7] is P. falciparum D6 (Sierra Leone). Put plainly: [3H]-hypoxanthine incorporation assay, D6. It counts as cell-based, Plasmodium falciparum. Conditions: Plasmodium falciparum.
The test system of experiment [8] is P. falciparum K1 (Thailand). The experiment is described as follows: [3H]-hypoxanthine incorporation assay, K1. It counts as cell-based, Plasmodium falciparum. Conditions: Plasmodium falciparum.
The subject of experiment [9] is Cam3.II^C580Y parasites. Put plainly: microbe, parasite or virus in culture. In kind it is cell-based, P. falciparum. Particulars: for IC50: Plasmodium falciparum, 72 h. The procedure: (§2) Parasites were cultured at Columbia University Medical Center (New York, USA) as previously described (1). Cam3.II and V1/S parasites, which had been genetically engineered to express K13 wild-type or K13 C580Y were seeded in a 96-well plate at 0.2% parasitemia and 1% hematocrit (2). […] Parasites were then stained with SYBR Green I (Invitrogen) and MitoTracker Deep Red (ThermoFisher Scientific) for 20 minutes at 37 °C (3). Stained parasites were detected using a BD Accuri 6 Flow Cytometer, and analyzed using FlowJo Software. IC50 values were determined by nonlinear regression using GraphPad Prism 6.0. For statistical analyses, Student’s t-tests were performed, and significance was set at P < 0.05.
(§3) Values indicate mean ± SEM, shown in nM. Significance determined by Student's t-test against parental lines.

Experiment [10] relates to Cam3.II^rev parasites (K13 wild-type). The experiment is described as follows: microbe, parasite or virus in culture. In kind it is cell-based, P. falciparum. Conditions: for IC50: Plasmodium falciparum, 72 h. The procedure:
as §2, §3

For experiment [11], the system named is P. falciparum PfNF54^0230/N3. Put plainly: In vivo efficacy, P. falciparum mouse model (GSK). Conditions: oral quadruple-dose regimen, once a day. The procedure:
In vivo efficacy against P. falciparum was conducted at GSK according to the standard assay previously described. Female NODscidIL2Rγnull mice were engrafted with human erythrocytes and infected with the isolate P. falciparum PfNF54^0230/N3, a strain developed at GSK for growth in engrafted mice. […] Blood samples were collected on Days 3, 4, 5, 6, and 7 (n = 3 per time point) for parasitemia measurement by flow cytometry. Similarly, blood samples were collected at 0.5, 1, 2, 4, 6, 8, 12, 24, and 48 h after a single administration of 4.7 mg/kg of ACT-451840 to a parallel group of three P. falciparum-infected mice for PK parameters determination. Results are expressed exclusively as antimalarial activity in the P. falciparum murine model.

For experiment [12], the system named is P. falciparum NF54 strain. The experiment is described as follows: [3H]-hypoxanthine incorporation assay, NF54. It counts as cell-based, Plasmodium falciparum. Particulars: Plasmodium falciparum. The procedure:
In vitro time-, stage-, and concentration-dependent effects were assessed using pyrimethamine as a stage-specific and slow-acting control, as described elsewhere.

Experiment [13] deals with P. falciparum W2 (Vietnam). Put plainly: [3H]-hypoxanthine incorporation assay, W2. It counts as cell-based, Plasmodium falciparum. Conditions: Plasmodium falciparum.
The subject of experiment [14] is V1/S^C580Y parasites. Put plainly: microbe, parasite or virus in culture. It counts as cell-based, P. falciparum. The procedure:
as §2, §3

The test system of experiment [15] is V1/S parasites (K13 wild-type). Put plainly: microbe, parasite or virus in culture. It counts as cell-based, P. falciparum. The procedure: as §2, §3
The subject of experiment [16] is P. falciparum strain 3D7 (MR4). Further details: method as in PMID 16735432. Particulars: 10 x IC50; cited from earlier work.
Where [17] appears, read: P. falciparum clinical isolates, n = 27 (closed symbols).
[18] abbreviates: P. vivax clinical isolates, n = 34 (open symbols).
[19] abbreviates: 7G8, read-out: 50% inhibitory concentration (IC50).
The mark [20] stands for this setting: read-out: 50% inhibitory concentration (IC50).
Where [21] appears, read: D6, read-out: 50% inhibitory concentration (IC50).
Where [22] appears, read: K1, read-out: 50% inhibitory concentration (IC50).

Read-outs that look alike come from different tables or passages of the source.

For the molecule `CCN(CC)Cc1cc(Nc2ccnc3cc(Cl)ccc23)ccc1O` [Amodiaquine], the results for the IC50 in [1] (setting [17]) and in [2] (setting [18]) were 0.0168 µM and 0.0123 µM, respectively.
In the case of `C[C@H]1[C@H](OC(=O)CCC(=O)O)O[C@@H]2O[C@@]3(C)CC[C@H]4[C@H](C)CC[C@@H]1[C@@]24OO3` [Artesunate, artesunate], the IC50 came to 0.0018 ± 0.0002 µM in experiment [3] (setting [19]); 0.0026 µM in experiment [1] (setting [17]); 0.0029 µM in [2] (setting [18]); 0.0046 ± 0.0017 µM in experiment [4] (setting [20]); 0.0032 ± 0.0005 µM in experiment [6]; 0.0071 ± 0.0019 µM in [7] (setting [21]). For the same molecule, the results for the IC50 in [8] (setting [22]), in [9] and in experiment [10] were 0.0027 ± 0.0004 µM, 0.0066 ± 0.0003 µM and 0.0067 ± 0.0007 µM, respectively. Also, the infected mice cured in [5] turned out to be 50%.
Turning to `CCN(CC)CCCC(C)Nc1ccnc2cc(Cl)ccc12` (stereo not shown) [Chloroquine, chloroquine], the IC50 in experiment [3] (setting [19]) turned out to be 0.137 ± 0.021 µM; in experiment [1], 0.101 µM; in experiment [2], 0.0439 µM; in experiment [4] (setting [20]) it was 0.174 ± 0.019 µM; in [12] (NF54, read-out: 50% inhibitory concentration (IC50)) it was 0.011 ± 0.0021 µM; in experiment [6], 0.458 ± 0.066 µM. Further, the IC50 in [7] (setting [21]) came out at 0.016 ± 0.0012 µM; in [8] (setting [22]), 0.303 ± 0.037 µM; in experiment [13] (W2, read-out: 50% inhibitory concentration (IC50)), 0.326 ± 0.038 µM. For the same molecule, the “effective dose resulting in 90% antimalarial activity (ED90)” value in [11] is 4.9 mg/kg.
For the molecule `OC(c1cc(C(F)(F)F)nc2c(C(F)(F)F)cccc12)C1CCCCN1` (stereo not shown) [Mefloquine, mefloquine], the IC50 worked out at 0.0134 µM in experiment [1] (setting [17]); 0.0152 µM in [2] (setting [18]); 0.0008 ± 0.0003 µM in experiment [14] (Plasmodium falciparum, 72 h); 0.014 ± 0.0009 µM in experiment [9]; 0.0013 ± 0.0004 µM in experiment [15] (Plasmodium falciparum, 72 h); 0.012 ± 0.0015 µM in [10]. Further, the IC50 fold change was determined as 0.6 in [14] (V1/S^C580Y versus V1/S), 1.2 in experiment [9] (Cam3.II^C580Y versus Cam3.II^rev), 1.0 in experiment [15] (V1/S (parental reference line)) and 1.0 in experiment [10] (Cam3.II^rev (parental reference line)).
In the case of `Clc1ccc2c(N3CCN(CCCN4CCN(c5ccnc6cc(Cl)ccc56)CC4)CC3)ccnc2c1` [Piperaquine], the IC50 in experiment [1] (setting [17]) was found to be 0.025 µM; in [2] (setting [18]), 0.0148 µM.
For the molecule `CCc1nc(N)nc(N)c1-c1ccc(Cl)cc1` [Pyrimethamine, pyrimethamine], the IC50 amounted to 10.5 µM in experiment [3] (read-out: 50% inhibitory concentration (IC50), 7G8, resistance CQ, PYR, CYC, mean ± SD); 19.2 µM in [4] (read-out: 50% inhibitory concentration (IC50), resistance CQ, PYR, MFQ, CYC, mean ± SD); 0.018 ± 0.0008 µM in experiment [12] (read-out: 50% inhibitory concentration (IC50), NF54, no resistance, mean ± SD, n = 3); 21.9 µM in [6] (V1/S, resistance CQ, SUL, PYR, CYC, mean ± SD); 0.0054 ± 0.0013 µM in experiment [7] (read-out: 50% inhibitory concentration (IC50), D6, resistance MFQ, mean ± SD); 10.1 µM in experiment [8] (read-out: 50% inhibitory concentration (IC50), K1, resistance CQ, SUL, PYR, CYC, mean ± SD). In addition, the IC50 in [13] (read-out: 50% inhibitory concentration (IC50), W2, resistance CQ, SUL, PYR, CYC, mean ± SD) came to 13.9 µM.
For the molecule `C[C@@H]1CC[C@H]2[C@@H](C)C(=O)O[C@@H]3O[C@@]4(C)CC[C@@H]1[C@]32OO4` [artemisinin], in experiment [16], the “parasite clearance time to kill 99.9% of the initial population” value is listed as “less than 24 h”.
For the molecule `O=C1C(O)=C([C@H]2CC[C@H](c3ccc(Cl)cc3)CC2)C(=O)c2ccccc21` [atovaquone], the “lag phase in the killing curve” value in experiment [16] is listed as 48 h.
